Measured values reported in patent US10112935B2, “Indazolyl thiadiazolamines and related compounds for inhibition of Rho-associated protein kinase and the treatment of disease” (Lycera Corporation, priority 2015, dated 2018).

What was measured:
[1] = target: GST-tagged human ROCK2 catalytic domain 1-553 (Homo sapiens (Human), UniProt O75116); assay: Inhibition of Rho-associated protein kinase isoform 2 (LANCE Ultra ULight-CREBtide FRET kinase assay); type: biochemical; details: for IC50: 30 μM was the highest concentration analyzed; for Selectivity for ROCK2 over ROCK1 (IC50 ROCK1 / IC50 ROCK2): selectivity ROCK2 vs ROCK1
GST-tagged human ROCK2 catalytic domain 1-553, sequence (O75116 1-553): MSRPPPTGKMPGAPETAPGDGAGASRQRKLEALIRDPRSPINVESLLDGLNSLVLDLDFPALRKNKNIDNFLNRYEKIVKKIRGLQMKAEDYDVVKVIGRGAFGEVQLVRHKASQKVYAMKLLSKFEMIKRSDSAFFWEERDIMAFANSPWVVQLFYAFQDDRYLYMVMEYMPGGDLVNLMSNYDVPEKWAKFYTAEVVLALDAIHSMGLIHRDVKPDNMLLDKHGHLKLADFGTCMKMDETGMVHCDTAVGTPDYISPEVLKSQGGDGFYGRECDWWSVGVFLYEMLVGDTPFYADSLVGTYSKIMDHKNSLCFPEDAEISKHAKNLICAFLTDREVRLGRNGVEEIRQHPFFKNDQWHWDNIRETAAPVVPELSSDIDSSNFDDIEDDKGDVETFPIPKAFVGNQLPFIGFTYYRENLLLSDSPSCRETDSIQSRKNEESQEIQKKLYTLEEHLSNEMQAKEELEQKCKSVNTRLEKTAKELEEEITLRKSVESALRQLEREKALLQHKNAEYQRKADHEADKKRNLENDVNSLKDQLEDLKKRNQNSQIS
Experimental: (§1) Exemplary compounds were tested for ability to inhibit Rho-associated protein kinase isoform 1 (ROCK1) and Rho-associated protein kinase isoform 2 (ROCK2). Assay procedures and results are described below.
(§2) Protein constructs were purified from a baculovirus expression system. The peptide substrate was fluorescent LANCE® Ultra ULight-CREBtide: […] (PerkinElmer, # TRF0107-D). […] After a 90 minute incubation at room temperature on a shaker table, the kinase reaction was stopped by addition of 10 mM EDTA, and phosphorylation of the substrate was detected by adding 1 nM LANCE® Ultra Europium-anti-phospho-CREB (ser133) antibody (PerkinElmer, # TRF0200-D) and incubating for 60 minutes on a shaker at room temperature. The flurorescence resonance energy transfer (FRET) signals were read and analyzed on an Envision™ 2103 Multilabel Reader (Perkin Elmer).

[2] = target: GST-tagged human ROCK1 catalytic domain 1-477 (Homo sapiens (Human), UniProt Q13464); assay: Inhibition of Rho-associated protein kinase isoform 1 (LANCE Ultra ULight-CREBtide FRET kinase assay); type: biochemical; details: 30 μM was the highest concentration analyzed
GST-tagged human ROCK1 catalytic domain 1-477, sequence (Q13464 1-477): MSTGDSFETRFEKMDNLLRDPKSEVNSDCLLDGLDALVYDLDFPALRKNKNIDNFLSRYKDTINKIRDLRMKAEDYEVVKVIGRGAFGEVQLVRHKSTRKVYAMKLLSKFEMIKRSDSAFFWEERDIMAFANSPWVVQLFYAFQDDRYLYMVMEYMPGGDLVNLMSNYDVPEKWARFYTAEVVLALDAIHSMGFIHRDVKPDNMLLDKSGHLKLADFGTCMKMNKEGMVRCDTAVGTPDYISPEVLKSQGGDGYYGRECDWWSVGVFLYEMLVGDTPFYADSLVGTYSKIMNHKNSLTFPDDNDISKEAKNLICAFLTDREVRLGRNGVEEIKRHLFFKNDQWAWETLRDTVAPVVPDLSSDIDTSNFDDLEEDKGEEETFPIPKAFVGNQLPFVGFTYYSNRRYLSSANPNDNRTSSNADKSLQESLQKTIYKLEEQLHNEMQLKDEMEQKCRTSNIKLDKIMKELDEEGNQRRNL
Experimental: as §1, §2

SMILES | IC50 [1] [µM] | Selectivity for ROCK2 over ROCK1 (IC50 ROCK1 / IC50 ROCK2) [1] | IC50 [2] [µM]
CC(=O)c1ccc(-c2cn3cccc(-c4nnc(Nc5ccc6[nH]ncc6c5Cl)s4)c3n2)cc1 [Example 51, 1-(4-(8-(5-((4-Chloro-1H-indazol-5-yl)amino)-1,3,4-thiadiazol-2-yl)imidazo[1,2-a]pyridin-2-yl)phenyl)ethan-1-one] | < 1 | >100 | > 30
CCc1cn2cccc(-c3nnc(Nc4ccc5[nH]nc(C)c5c4)s3)c2n1 [Example 50A] | < 1 | >5 | 1 to 15
O=C(O)C(F)(F)F.Oc1cccc(-c2cccc(-c3nnc(Nc4ccc5[nH]ncc5c4Cl)s3)c2)n1 [Example 46B] | < 1 | >100 | > 30
CC(=O)Nc1cc(CN(C)C)cc(-c2nnc(Nc3ccc4[nH]ncc4c3Cl)s2)c1.O=C(O)C(F)(F)F [Example 48C] | < 1 | >5 | 1 to 15
O=C1Cc2c(cccc2-c2nnc(Nc3ccc4[nH]ncc4c3Cl)s2)N1 [Example 56D] | < 1 | >100 | > 30
CS(=O)(=O)Nc1cccc(-c2nnc(Nc3ccc4[nH]ncc4c3)s2)c1 [Example A-19] | < 1 | >100 | > 30
N#Cc1ccc(CC(=O)Nc2cccc(-c3nnc(Nc4ccc5[nH]ncc5c4Cl)s3)c2)cc1 [Example 35BK] | < 1 | >100 | > 30
CC(=O)Nc1cc(F)c(F)c(-c2nnc(Nc3ccc4[nH]ncc4c3Cl)s2)c1.O=C(O)C(F)(F)F [Example 35BB] | < 1 | >100 | > 30
CC(=O)Nc1cc(CN2CCOCC2)cc(-c2nnc(Nc3ccc4[nH]ncc4c3Cl)s2)c1.O=C(O)C(F)(F)F [Example 48D] | < 1 | >5 | 1 to 15
CCCOC(=O)Nc1cc(-c2nnc(Nc3ccc4[nH]ncc4c3Cl)s2)ccn1.O=C(O)C(F)(F)F [Example 35F] | < 1 | >100 | > 30
CN1CCN(c2cccc(-c3nnc(Nc4ccc5[nH]ncc5c4Cl)s3)c2)C(=O)C1 [Example 42, 1-(3-(5-((4-Chloro-1H-indazol-5-yl)amino)-1,3,4-thiadiazol-2-yl)phenyl)-4-methylpiperazin-2-one] | 1 to 15 | >5 | 1 to 15
COc1cccc(-c2nnc(N(CCO)c3ccc4[nH]ncc4c3)s2)c1 [Example A-21] | 15 to 30 | <5 | 15 to 30
O=C(Nc1cccc(-c2nnc(Nc3ccc4[nH]ncc4c3Cl)s2)c1)c1cnccn1 [Example 35BR] | < 1 | >100 | > 30
CC(=O)Nc1cc(-c2nnc(Nc3ccc4[nH]ncc4c3Cl)s2)ccc1CN(C)C [Example 48L] | < 1 | >5 | 1 to 15
C=Cc1c(Nc2nnc(-c3cccc(NC(C)=O)c3)s2)ccc2[nH]ncc12.O=C(O)C(F)(F)F [Example 35K] | < 1 | >5 | 1 to 15
O=C(Cc1ccon1)Nc1cccc(-c2nnc(Nc3ccc4[nH]ncc4c3Cl)s2)c1 [Example 35BG] | < 1 | >100 | > 30
Cn1cc(C(=O)Nc2cccc(-c3nnc(Nc4ccc5[nH]nc(Cl)c5c4)s3)c2)cn1 [Example 75J] | > 30 | – | > 30
Cn1cc(C(=O)Nc2cc(-c3nnc(Nc4ccc5[nH]ncc5c4Cl)s3)ccc2Br)cn1 [Example 48Y] | < 1 | >100 | > 30
CC1(C)COC(c2cccc(-c3nnc(Nc4ccc5[nH]ncc5c4Cl)s3)c2)=N1 [Example 46F] | < 1 | >5 | 1 to 15
CC(C(=O)Nc1cccc(-c2nnc(Nc3ccc4[nH]ncc4c3Cl)s2)c1)c1ccc(F)cc1 (stereo not shown) [Example 35E] | < 1 | >50 | 1 to 15
c1cc2[nH]ncc2cc1Nc1nnc(C2CCCNC2)s1 (stereo not shown) [Example A-33] | 1 to 15 | <5 | 15 to 30
Clc1c(Nc2nnc(-c3cccc(-c4ncco4)c3)s2)ccc2[nH]ncc12 [Example 46O] | < 1 | >100 | > 30
Nc1ccnc(-c2nnc(Nc3ccc4[nH]ncc4c3)s2)c1.O=C(O)C(F)(F)F [Example 35CT] | < 1 | >5 | > 30
C[C@H](N)C(=O)Nc1cccc(-c2nnc(Nc3ccc4[nH]ncc4c3Cl)s2)c1 [Example 35AA] | < 1 | >5 | 1 to 15
Cc1cnn(CC(=O)Nc2cccc(-c3nnc(Nc4ccc5[nH]ncc5c4Cl)s3)c2)c1 [Example 35BI] | < 1 | >100 | 1 to 15
CC(C)NC(=O)COc1cccc(-c2nnc(Nc3ccc4[nH]ncc4c3)s2)c1 [Example A-23] | < 1 | >50 | > 30
CC(C)NC(=O)COc1cncc(-c2nnc(Nc3ccc4[nH]ncc4c3)s2)c1 [Example 75L] | – | >75 | > 30
CN(C)CC(=O)Nc1cncc(-c2nnc(Nc3ccc4[nH]ncc4c3)s2)c1 [Example A-3] | < 1 | <5 | 1 to 15

The next lines start with the values.

IC50 [1] [µM] | Selectivity for ROCK2 over ROCK1 (IC50 ROCK1 / IC50 ROCK2) [1] | IC50 [2] [µM] | SMILES
< 1 | >50 | < 1 | CC(C(=O)Nc1cc(-c2nnc(Nc3ccc4[nH]ncc4c3Cl)s2)ccn1)c1ccc(F)cc1 (stereo not shown) [Example 34, N-(4-(5-((4-Chloro-1H-indazol-5-yl)amino)-1,3,4-thiadiazol-2-yl)pyridin-2-yl)-2-(4-fluorophenyl)propanamide]
< 1 | >5 | < 1 | CC(C)(O)c1ccc(-c2cn3cccc(-c4nnc(Nc5ccc6[nH]ncc6c5Cl)s4)c3n2)cc1 [Example 50F]
< 1 | <5 | < 1 | Nc1nc(-c2nnc(Nc3ccc4[nH]ncc4c3Cl)s2)c[nH]1 [Example 75W]
< 1 | <5 | < 1 | Nc1cncc(-c2nnc(Nc3ccc4[nH]ncc4c3)s2)c1 [Example A-24]
< 1 | >5 | < 1 | CC1CCN(C(=O)Nc2cccc(-c3nnc(Nc4ccc5[nH]ncc5c4)s3)c2)C1 (stereo not shown) [Example A-28]
< 1 | <5 | < 1 | Cc1cccc(CNC(=O)c2cccc(-c3nnc(Nc4ccc5[nH]ncc5c4Cl)s3)c2)n1 [Example 75G]
< 1 | >5 | < 1 | COc1cccc(C(=O)Nc2cccc(-c3nnc(Nc4ccc5[nH]ncc5c4Cl)s3)c2)c1 [Example 35BT]
< 1 | >5 | < 1 | CC(C)C[C@H](N)C(=O)Nc1cccc(-c2nnc(Nc3ccc4[nH]ncc4c3Cl)s2)c1 [Example 35BA]
< 1 | >5 | < 1 | CC(=O)Nc1cc(C(=O)NCC(O)CO)cc(-c2nnc(Nc3ccc4[nH]ncc4c3Cl)s2)c1 (stereo not shown) [Example 48W]
< 1 | <5 | < 1 | Cn1cc(C(=O)Nc2cc(-c3nnc(Nc4ccc5[nH]ncc5c4)s3)ccn2)cn1 [Example 75I]
< 1 | >5 | < 1 | Cc1cc(CC(=O)Nc2cccc(-c3nnc(Nc4ccc5[nH]ncc5c4Cl)s3)c2)on1 [Example 35BN]
< 1 | <5 | < 1 | Clc1c(Nc2nnc(-c3cccn4cc(C5CCCN5)nc34)s2)ccc2[nH]ncc12 (stereo not shown) [Example 50G]
< 1 | <5 | < 1 | Cn1cnc2c(-c3nnc(Nc4ccc5[nH]ncc5c4)s3)cccc21 [Example A-15]
< 1 | >50 | < 1 | O=C(Nc1cccc(-c2nnc(Nc3ccc4[nH]ncc4c3Cl)s2)c1)c1cc(O)cc(O)c1 [Example 35AS]
< 1 | >5 | < 1 | CCc1cn2cccc(-c3nnc(Nc4ccc5[nH]ncc5c4Cl)s3)c2n1 [Example 52D]
< 1 | >5 | < 1 | CNCc1ccc(C(=O)Nc2cccc(-c3nnc(Nc4ccc5[nH]ncc5c4)s3)c2)cn1 [Example 75K]
< 1 | >50 | < 1 | CC(=O)Nc1cc(CO)cc(-c2nnc(Nc3ccc4[nH]ncc4c3Cl)s2)c1 [Example 48H]
